Reference: US20120014956A1, “METHODS AND COMPOSITIONS FOR PREDICTING RESPONSIVENESS TO TREATMENT WITH TNF-ALPHA INHIBITOR” (priority 2010, published 2012)

What was measured:
[1] = test system: patients with early RA; test: OPTIMA genetic substudy: ACR20/50/70 response at Week 26; type: in vivo, human; conditions: for ACR50, % / ACR50, n/N: 26 weeks; for ACR20 Response Rates at Week 26 (title; column head ACR70), % subjects / ACR20 Response Rates at Week 26 (title; column head ACR70), n/N subjects: Table 6a; for ACR20 Response Rates at Week 26 (title; column head ACR70), % subjects / ACR20 Response Rates at Week 26 (title; column head ACR70), n/N subjects / ACR50 response rate, % subjects / ACR50 response, n/N subjects / ACR70 response rate, % subjects / ACR70 response, n/N subjects / ACR20 response rate, % subjects / ACR20 response, n/N subjects: Week 26
Excerpt: (§1) The objective of the study was to prospectively analyze the association of 3 genetic risk factors (HLA-DRB1 shared epitope (SE), FcγRIIb, and IL-4R) for severe RA with clinical disease activity after 26 weeks of combination therapy with adalimumab (ADA) and methotrexate (MTX) or MTX monotherapy in a substudy of OPTIMA (A Multicentre, Randomized, Double Period, Double-Blind Study to Determine the Optimal Protocol for Treatment Initiation With Methotrexate and Adalimumab Combination Therapy in Patients With Early Rheumatoid Arthritis).
(§2) OPTIMA is an ongoing 78-week study with 26- and 52-week periods. Eligible patients had RA<1 year (1987-revised ACR classification), 28-joint Disease Activity Score (DAS28)>3.2, ≧6 swollen joints […], and ≧8 tender joints (SSJC66≧8). Patients had elevated erythrocyte sedimentation rate (ESR)≧28 mm/h or C-reactive protein (CRP)≧1.5 mg/dL and ≧1 of the following: >1 erosion, rheumatoid-factor positive (RF+), or anti-cyclic citrullinated peptide antibody positive (anti-CCP+). Exclusion criteria included prior exposure to systemic anti-TNF therapies, treatment with MTX or >2 disease-modifying anti-rheumatic drugs (DMARDs), other acute inflammatory joint diseases, or steroidal or surgical treatment within 4 weeks or 2 months, respectively.
(§3) In Period 2, those combination therapy responders, e.g., meeting DAS28 low disease activity (LDA) criteria (DAS28<3.2), were re-randomized 1:1 to remain on ADA+MTX or to “step down” to PBO+MTX for Weeks 26-78. In the initial PBO+MTX monotherapy group, subjects who achieved DAS28 LDA after Period 1 remained blinded on PBO+MTX for Period 2. […] Genetic data were associated with Week-26 clinical response.
(§4) For clinical assessment, the percentage of subjects achieving a 20%, 50%, and 70% improvement from baseline ACR scores was determined after Week 26 using a non-responder imputation approach. DAS28(CRP)^1 scores were evaluated at Week 26. The proportion of subjects achieving LDA (DAS28<3.2) and remission criteria (DAS28<2.6) was determined using a non-responder imputation approach.
(§5) For statistical analyses, Allele distribution between treatment groups was evaluated using the chi-square test, or Fisher's exact test in cases where data were sparse. The chi-square test was used to compare the proportion of subject achieving ACR20/50/70 and DAS28 LDA (<3.2) or remission (<2.6) within and between treatment groups.
(§6) MTX-naïve patients were randomized 1:1 to ADA (40 mg eow)+MTX (titrated to 20 mg/wk by Week 8) or placebo (PBO)+MTX for the first 26 weeks.
(§7) The percentage of subjects achieving a 50% improvement in the ACR score from baseline was determined at Week 26 using a non-responder imputation approach. The percentage of subjects achieving DAS28(CRP) remission (DAS28<2.6) was determined at Week 26 using a non-responder imputation approach.
(§8) Allele distribution between treatment groups was evaluated using the chi-square test, or Fisher's exact test in cases where data were sparse. Multivariate logistic regression was used to evaluate the effect of treatment, individual alleles, the interaction between treatment and genetic components, and baseline demographics and disease characteristics on clinical responses at 26 weeks.
(§9) MTX-naïve pts ≧18 years old with RA<1 year and active disease (DAS28>3.2, ESR≧28 mm/h or CRP≧1.5 mg/dL), and either >1 erosions, RF+, or anti-CCP+ were randomized to ADA+MTX (N=515) or PBO+MTX (N=517) for 26 wks. This analysis presents clinical outcomes at 26 weeks by HLA-DRB1 SE copy number (0×, 1×, or 2×), IL-4R I50V (AA, AG, or GG), and FcγRIIb I232T (TT, TC, CC) alleles. Non-responder imputation was used to calculate the percent of patients achieving ACR20/50/70 and DAS28 low disease activity (LDA, DAS28<3.2) and remission (DAS28<2.6). Multiple logistic regression was used to assess the influence of potential confounding baseline variables. […]

[2] = test system: patients with early RA; test: OPTIMA genetic substudy: DAS28 low disease activity (<3.2) and remission (<2.6) at Week 26; type: in vivo, human
Excerpt: as §1, §2, §3, §4, §5, §6, §7, §8, §9

[3] = HLA-DRB1 SE 0 copies, non-responder imputation

CN(Cc1cnc2nc(N)nc(N)c2n1)c1ccc(C(=O)N[C@@H](CCC(=O)O)C(=O)O)cc1 [PBO + MTX, methotrexate]
ACR50, % ([1]; IL-4R AA, HLA-DRB1 SE copy # 0): (44%) | ACR50, n/N ([1]; IL-4R AA, HLA-DRB1 SE copy # 0): 15/34 | ACR50, % ([1]; IL-4R AA, HLA-DRB1 SE copy # 1): (41%) | ACR50, n/N ([1]; IL-4R AA, HLA-DRB1 SE copy # 1): 23/56 | ACR50, % ([1]; IL-4R AA, HLA-DRB1 SE copy # 2): (30%) | ACR50, n/N ([1]; IL-4R AA, HLA-DRB1 SE copy # 2): 7/23 | ACR50, % ([1]; IL-4R AG, HLA-DRB1 SE copy # 0): (42%) | ACR50, n/N ([1]; IL-4R AG, HLA-DRB1 SE copy # 0): 33/78 | ACR50, % ([1]; IL-4R AG, HLA-DRB1 SE copy # 1): (37%) | ACR50, n/N ([1]; IL-4R AG, HLA-DRB1 SE copy # 1): 34/92 | ACR50, % ([1]; IL-4R AG, HLA-DRB1 SE copy # 2): (38%) | ACR50, n/N ([1]; IL-4R AG, HLA-DRB1 SE copy # 2): 12/32 | ACR50, % ([1]; IL-4R GG, HLA-DRB1 SE copy # 0): (47%) | ACR50, n/N ([1]; IL-4R GG, HLA-DRB1 SE copy # 0): 18/38 | ACR50, % ([1]; IL-4R GG, HLA-DRB1 SE copy # 1): (40%) | ACR50, n/N ([1]; IL-4R GG, HLA-DRB1 SE copy # 1): 14/35 | ACR50, % ([1]; IL-4R GG, HLA-DRB1 SE copy # 2): (50%) | ACR50, n/N ([1]; IL-4R GG, HLA-DRB1 SE copy # 2): 1/2 | association of FcγRIIb with 26-week response, multiple logistic regression ([1]; ADA+MTX: FcγRIIb-CC with ACR70 and DAS28 remission): failed to show a significant association | association of IL-4R with 26-week response, multiple logistic regression ([1]; IL-4R alone): failed to show a significant association | association of SE copy number with 26-week response, multiple logistic regression ([1]; PBO+MTX: ACR20 and ACR50, ADA+MTX: ACR20/50/70 and DAS28 LDA): significant negative effect | ACR20 Response Rates at Week 26 (title; column head ACR70), % subjects ([1]; IL-4R AA): (13%) | ACR20 Response Rates at Week 26 (title; column head ACR70), n/N subjects ([1]; IL-4R AA): 17/130 | ACR20 Response Rates at Week 26 (title; column head ACR70), % subjects ([1]; IL-4R AG): (19%) | ACR20 Response Rates at Week 26 (title; column head ACR70), n/N subjects ([1]; IL-4R AG): 42/233 | ACR20 Response Rates at Week 26 (title; column head ACR70), % subjects ([1]; IL-4R GG): (18%) | ACR20 Response Rates at Week 26 (title; column head ACR70), n/N subjects ([1]; IL-4R GG): 16/88 | ACR50 response rate, % subjects ([1]; HLA-DRB1 SE 0 copies): (40%) | ACR50 response, n/N subjects ([1]; HLA-DRB1 SE 0 copies): 66/167 | ACR70 response rate, % subjects ([1]; HLA-DRB1 SE 0 copies): (19%) | ACR70 response, n/N subjects ([1]; HLA-DRB1 SE 0 copies): 31/157 | ACR50 response rate, % subjects ([1]; HLA-DRB1 SE 0 copies, listed as MTX): 40% | ACR20 response rate, % subjects [1, 3]: (63%) | ACR20 response, n/N subjects [1, 3]: 105/167 | ACR20 response rate, % subjects ([1]; HLA-DRB1 SE 1 copy): (54%) | ACR20 response, n/N subjects ([1]; HLA-DRB1 SE 1 copy): 115/215 | ACR50 response rate, % subjects ([1]; HLA-DRB1 SE 1 copy): (33%) | ACR50 response, n/N subjects ([1]; HLA-DRB1 SE 1 copy): 71/215 | ACR70 response rate, % subjects ([1]; HLA-DRB1 SE 1 copy): (17%) | ACR70 response, n/N subjects ([1]; HLA-DRB1 SE 1 copy): 36/215 | ACR50 response rate, % subjects ([1]; HLA-DRB1 SE 1 copy, listed as MTX): 33% | ACR20 response rate, % subjects ([1]; HLA-DRB1 SE 2 copies): (52%) | ACR20 response, n/N subjects ([1]; HLA-DRB1 SE 2 copies): 36/69 | ACR50 response rate, % subjects ([1]; HLA-DRB1 SE 2 copies): (29%) | ACR50 response, n/N subjects ([1]; HLA-DRB1 SE 2 copies): 20/69 | ACR70 response rate, % subjects ([1]; HLA-DRB1 SE 2 copies): (13%) | ACR70 response, n/N subjects ([1]; HLA-DRB1 SE 2 copies): 9/69 | ACR50 response rate, % subjects ([1]; HLA-DRB1 SE 2 copies, listed as MTX): 29% | ACR50 response rate, % subjects ([1]; IL-4R AA): (35%) | ACR50 response, n/N subjects ([1]; IL-4R AA): 45/130 | ACR70 response rate, % subjects ([1]; IL-4R AA): (13%) | ACR70 response, n/N subjects ([1]; IL-4R AA): 17/130 | ACR50 response rate, % subjects ([1]; IL-4R AG): (34%) | ACR50 response, n/N subjects ([1]; IL-4R AG): 79/233 | ACR70 response rate, % subjects ([1]; IL-4R AG): (19%) | ACR70 response, n/N subjects ([1]; IL-4R AG): 42/233 | ACR50 response rate, % subjects ([1]; IL-4R GG): (38%) | ACR50 response, n/N subjects ([1]; IL-4R GG): 33/88 | ACR70 response rate, % subjects ([1]; IL-4R GG): (18%) | ACR70 response, n/N subjects ([1]; IL-4R GG): 16/88 | LDA DAS28 <3.2, % subjects ([2]; HLA-DRB1 SE 0 copies): (30%) | LDA DAS28 <3.2, n/N subjects ([2]; HLA-DRB1 SE 0 copies): 49/167 | Remission DAS28 <2.6, % subjects ([2]; HLA-DRB1 SE 0 copies): (17%) | Remission DAS28 <2.6, n/N subjects ([2]; HLA-DRB1 SE 0 copies): 28/167 | LDA DAS28 <3.2, % subjects ([2]; HLA-DRB1 SE 1 copy): (23%) | LDA DAS28 <3.2, n/N subjects ([2]; HLA-DRB1 SE 1 copy): 50/215 | Remission DAS28 <2.6, % subjects ([2]; HLA-DRB1 SE 1 copy): (16%) | Remission DAS28 <2.6, n/N subjects ([2]; HLA-DRB1 SE 1 copy): 35/215 | LDA DAS28 <3.2, % subjects ([2]; HLA-DRB1 SE 2 copies): (24%) | LDA DAS28 <3.2, n/N subjects ([2]; HLA-DRB1 SE 2 copies): 16/69 | Remission DAS28 <2.6, % subjects ([2]; HLA-DRB1 SE 2 copies): (16%) | Remission DAS28 <2.6, n/N subjects ([2]; HLA-DRB1 SE 2 copies): 11/69 | LDA DAS28 <3.2, % subjects ([2]; IL-4R AA): (24%) | LDA DAS28 <3.2, n/N subjects ([2]; IL-4R AA): 31/130 | Remission DAS28 <2.6, % subjects ([2]; IL-4R AA): (14%) | Remission DAS28 <2.6, n/N subjects ([2]; IL-4R AA): 18/130 | LDA DAS28 <3.2, % subjects ([2]; IL-4R AG): (25%) | LDA DAS28 <3.2, n/N subjects ([2]; IL-4R AG): 58/233 | Remission DAS28 <2.6, % subjects ([2]; IL-4R AG): (16%) | Remission DAS28 <2.6, n/N subjects ([2]; IL-4R AG): 37/233 | LDA DAS28 <3.2, % subjects ([2]; IL-4R GG): (30%) | LDA DAS28 <3.2, n/N subjects ([2]; IL-4R GG): 26/88 | Remission DAS28 <2.6, % subjects ([2]; IL-4R GG): (22%) | Remission DAS28 <2.6, n/N subjects ([2]; IL-4R GG): 19/88
